Data as given in patent EP4810052A2, “HCRHR2 SELECTIVE POLYPEPTIDES” (Gubra A/S, priority 2023, dated 2026).
Read-outs that look alike come from different tables or passages of the source. Starred links: 1 amine or outer side, 2 acyl side, 3 side chain; linkers in the order of their positions; H or OH if unused. Non-standard residues stand in square brackets, D forms with d. Residues, ends and D or L forms follow the SMILES beside them. Groups on a side chain read outwards from the residue. *: point of attachment. C20 diacid = O=C(O)CCCCCCCCCCCCCCCCCCC(=O)*; Pro(4S-NH2) = N[C@@H]1CN[C@H](C(=O)O)C1; γGlu = O=C(O)[C@H](CCC(=O)[*:2])N[*:1]; NMeI = CC[C@H](C)[C@H](NC)C(=O)O; Nle = CCCC[C@H](N)C(=O)O; AEEA = NCCOCCOCC(=O)O; Aib = CC(C)(N)C(=O)O

Legend:
hCRHR2 = molecular target: T1, hCRHR2 (Homo sapiens, UniProt Q13324); assay: HTRF cAMP assay, determination of hCRHR2 potency (peptide libraries 5 conc., purified peptides 11 conc.); format: cell-based
T1 sequence (Q13324 1-411): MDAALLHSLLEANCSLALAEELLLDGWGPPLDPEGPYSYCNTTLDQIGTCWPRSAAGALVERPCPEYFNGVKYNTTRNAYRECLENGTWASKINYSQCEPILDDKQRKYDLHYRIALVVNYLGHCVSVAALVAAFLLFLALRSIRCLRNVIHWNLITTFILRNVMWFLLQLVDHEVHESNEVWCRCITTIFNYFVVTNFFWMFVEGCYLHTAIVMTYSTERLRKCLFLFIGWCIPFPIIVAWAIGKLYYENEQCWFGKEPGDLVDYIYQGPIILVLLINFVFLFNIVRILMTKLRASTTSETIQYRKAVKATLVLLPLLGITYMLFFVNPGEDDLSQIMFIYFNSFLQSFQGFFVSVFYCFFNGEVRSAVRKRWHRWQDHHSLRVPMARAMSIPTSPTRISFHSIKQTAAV
Outline: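 Frozen stocks of hCRHR2-expressing CHO-K1 cells, thawed just before testing, received peptide agonists in suspension; cAMP quantified by competitive HTRF immunoassay, with curves fitted by nonlinear regression (variable slope) for EC50.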

hCRHR1 = molecular target: T2, hCRHR1 (Homo sapiens, UniProt P34998); assay: HTRF cAMP assay, determination of hCRHR1 potency (peptide libraries 5 conc., purified peptides 11 conc.); format: cell-based
T2 sequence (P34998 24-415): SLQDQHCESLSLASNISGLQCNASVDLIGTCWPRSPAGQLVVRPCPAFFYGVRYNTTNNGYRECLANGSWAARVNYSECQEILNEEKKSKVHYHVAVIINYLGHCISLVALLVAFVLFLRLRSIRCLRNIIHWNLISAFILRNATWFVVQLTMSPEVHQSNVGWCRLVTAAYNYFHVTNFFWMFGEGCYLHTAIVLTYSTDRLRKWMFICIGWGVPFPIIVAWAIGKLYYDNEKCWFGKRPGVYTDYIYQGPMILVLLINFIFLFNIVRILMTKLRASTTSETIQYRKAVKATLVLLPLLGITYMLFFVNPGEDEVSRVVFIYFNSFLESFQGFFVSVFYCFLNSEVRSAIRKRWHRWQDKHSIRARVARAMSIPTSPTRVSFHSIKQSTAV
Outline: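 Cellular cAMP was read by time-resolved FRET between d2-labelled cAMP and cryptate anti-cAMP antibody. The cells were freshly thawed suspension CHO-K1 cells stably expressing human CRHR1.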

[1] = Table 4, library peptides having X^38 = Nle, read-out: hCRHR2 pEC50 (converted)
[2] = Table 4, library peptides having X^38 = Nle, read-out: hCRHR1 pEC50 (converted)
[3] = library peptides, matched molecular pairs L vs Nle in position X^38, read-out: Potency hCRHR2 pEC50 (converted)
[4] = library peptides, matched molecular pairs L vs Nle in position X^38, read-out: Potency hCRHR1 pEC50 (converted)

Row | EC50 (hCRHR2; [1]) [nM] | EC50 (hCRHR1; [2]) [nM] | EC50 (hCRHR2; [3]) [nM] | EC50 (hCRHR1; [4]) [nM] | Structure (SMILES) | also measured
1 |  |  |  |  | CCCC[C@H](NC(=O)[C@@H](NC(=O)[C@H](CCC(=O)O)NC(=O)[C@H](C)NC(=O)[C@H](CC(N)=O)NC(=O)[C@@H](NC(=O)[C@H](CCCCNC(=O)COCCOCCNC(=O)COCCOCCNC(=O)CC[C@H](NC(=O)CC[C@H](NC(=O)CCCCCCCCCCCCCCCCCCC(=O)O)C(=O)O)C(=O)O)NC(=O)[C@H](C)NC(=O)[C@H](CCC(N)=O)NC(=O)[C@H](CCC(=O)O)NC(=O)[C@H](CCCNC(=N)N)NC(=O)[C@H](C)NC(=O)[C@H](C)NC(=O)[C@H](CCCNC(=N)N)NC(=O)[C@H](C)NC(=O)[C@H](CCCNC(=N)N)NC(=O)[C@H](C)NC(=O)[C@H](CCC(N)=O)NC(=O)[C@H](CCC(=O)O)NC(=O)[C@H](CC(C)C)NC(=O)[C@H](CC(C)C)NC(=O)[C@@H](NC(=O)[C@H](CCC(N)=O)NC(=O)[C@H](CC(C)C)NC(=O)[C@H](CC(C)C)NC(=O)CNC(=O)[C@@H](NC(=O)[C@@H]1CCCN1C(=O)[C@@H](NC(=O)[C@H](CC(=O)O)NC(=O)[C@H](CC(C)C)NC(=O)[C@H](CO)NC(=O)[C@H](CC(C)C)NC(=O)[C@@H](NC(=O)[C@@H](N)[C@@H](C)CC)C(C)C)C(C)C)[C@@H](C)CC)[C@@H](C)CC)[C@@H](C)O)[C@@H](C)CC)C(=O)N[C@@H](C)C(=O)N[C@@H](CCC(=O)O)C(=O)N[C@H](C(N)=O)C(C)C [SEQ ID NO: 45] (H-IVLSLDVPIGLLQILLEQARARAAREQAK([AEEA-AEEA-γGlu-γGlu-C20 diacid])TNAEI[Nle]AEV-NH2) | EC50 (hCRHR2; Table 3, matched molecular pairs X^38 L vs Nle, peptide library of Example 4, read-out: hCRHR2 pEC50 (converted)): 0.251 nM; Selectivity ratio (hCRHR1/ hCRHR2) (hCRHR2; Table 5): 107; EC50 (hCRHR2; Table 5, purified peptides, read-out: hCRHR2 EC50): 0.52 nM; EC50 (hCRHR1; Table 3, matched molecular pairs X^38 L vs Nle, peptide library of Example 4, read-out: hCRHR1 pEC50 (converted)): 200 nM
2 | 0.0398 | 1000 |  |  | CCCC[C@H](NC(=O)[C@@H](NC(=O)[C@H](CCC(=O)O)NC(=O)C(C)(C)NC(=O)[C@H](CC(N)=O)NC(=O)[C@@H](NC(=O)[C@H](CCCCNC(=O)COCCOCCNC(=O)COCCOCCNC(=O)CC[C@H](NC(=O)CC[C@H](NC(=O)CCCCCCCCCCCCCCCCCCC(=O)O)C(=O)O)C(=O)O)NC(=O)[C@H](C)NC(=O)[C@H](CCC(N)=O)NC(=O)[C@H](CCC(=O)O)NC(=O)[C@H](CCCNC(=N)N)NC(=O)[C@H](C)NC(=O)[C@H](C)NC(=O)[C@H](CCCNC(=N)N)NC(=O)[C@H](C)NC(=O)[C@H](CCCNC(=N)N)NC(=O)[C@H](C)NC(=O)[C@H](CCC(N)=O)NC(=O)[C@H](Cc1c[nH]cn1)NC(=O)[C@H](CC(C)C)NC(=O)[C@H](CC(C)C)NC(=O)[C@@H](NC(=O)[C@H](CCC(N)=O)NC(=O)[C@H](CC(C)C)NC(=O)[C@H](CC(C)C)NC(=O)CNC(=O)[C@@H](NC(=O)[C@@H]1CCCN1C(=O)[C@@H](NC(=O)[C@H](CC(=O)O)NC(=O)[C@H](CC(C)C)NC(=O)[C@H](CO)NC(=O)[C@H](CC(C)C)NC(=O)[C@@H](NC(=O)[C@@H](NC)[C@@H](C)CC)C(C)C)C(C)C)[C@@H](C)CC)[C@@H](C)CC)[C@@H](C)O)[C@@H](C)CC)C(=O)N[C@@H](C)C(=O)N[C@@H](CCC(=O)O)C(=O)N[C@H](C(N)=O)C(C)C [compound 207] (H-[NMeI]VLSLDVPIGLLQILLHQARARAAREQAK([AEEA-AEEA-γGlu-γGlu-C20 diacid])TN[Aib]EI[Nle]AEV-NH2) | 
3 |  |  | 1.58 | 1.58 | CC[C@H](C)[C@H](N)C(=O)N[C@H](C(=O)N[C@@H](CC(C)C)C(=O)N[C@@H](CO)C(=O)N[C@@H](CC(C)C)C(=O)N[C@@H](CC(=O)O)C(=O)N[C@H](C(=O)N1C[C@@H](N)C[C@H]1C(=O)N[C@H](C(=O)NCC(=O)N[C@@H](CC(C)C)C(=O)N[C@@H](CC(C)C)C(=O)N[C@@H](CCC(N)=O)C(=O)N[C@H](C(=O)N[C@@H](CC(C)C)C(=O)N[C@@H](CC(C)C)C(=O)N[C@@H](CCC(=O)O)C(=O)N[C@@H](CCC(N)=O)C(=O)N[C@@H](C)C(=O)N[C@@H](CCCNC(=N)N)C(=O)N[C@@H](C)C(=O)N[C@@H](CCCNC(=N)N)C(=O)N[C@H](C(=O)N[C@@H](C)C(=O)N[C@@H](CCCNC(=N)N)C(=O)N[C@@H](CCC(=O)O)C(=O)N[C@@H](CCC(N)=O)C(=O)N[C@@H](C)C(=O)N[C@@H](CCCCNC(=O)COCCOCCNC(=O)COCCOCCNC(=O)CC[C@H](NC(=O)CC[C@H](NC(=O)CCCCCCCCCCCCCCCCCCC(=O)O)C(=O)O)C(=O)O)C(=O)N[C@H](C(=O)N[C@@H](CC(N)=O)C(=O)N[C@@H](C)C(=O)N[C@@H](CCC(=O)O)C(=O)N[C@H](C(=O)N[C@@H](CC(C)C)C(=O)N[C@@H](C)C(=O)N[C@@H](CCC(=O)O)C(=O)N[C@H](C(N)=O)C(C)C)[C@@H](C)CC)[C@@H](C)O)C(C)C)[C@@H](C)CC)[C@@H](C)CC)C(C)C)C(C)C [compound 76] (H-IVLSLDV[Pro(4S-NH2)]IGLLQILLEQARARVAREQAK([AEEA-AEEA-γGlu-γGlu-C20 diacid])TNAEILAEV-NH2) | 
4 | 0.01 | 794 |  |  | CCCC[C@H](NC(=O)[C@@H](NC(=O)[C@H](CCC(=O)O)NC(=O)[C@H](C)NC(=O)[C@H](CC(N)=O)NC(=O)C(C)(C)NC(=O)[C@H](CCCCNC(=O)COCCOCCNC(=O)COCCOCCNC(=O)CC[C@H](NC(=O)CC[C@H](NC(=O)CCCCCCCCCCCCCCCCCCC(=O)O)C(=O)O)C(=O)O)NC(=O)[C@H](C)NC(=O)[C@H](CCC(N)=O)NC(=O)[C@H](CCC(=O)O)NC(=O)[C@H](CCCNC(=N)N)NC(=O)[C@H](C)NC(=O)[C@H](C)NC(=O)[C@H](CCCNC(=N)N)NC(=O)[C@H](C)NC(=O)[C@H](CCCNC(=N)N)NC(=O)[C@H](C)NC(=O)[C@H](CCC(N)=O)NC(=O)[C@H](Cc1c[nH]cn1)NC(=O)[C@H](CC(C)C)NC(=O)[C@H](CC(C)C)NC(=O)[C@@H](NC(=O)[C@H](CCC(N)=O)NC(=O)[C@H](CC(C)C)NC(=O)[C@H](CC(C)C)NC(=O)CNC(=O)[C@@H](NC(=O)[C@@H]1CCCN1C(=O)[C@@H](NC(=O)[C@H](CC(=O)O)NC(=O)[C@H](CC(C)C)NC(=O)[C@H](CO)NC(=O)[C@H](CC(C)C)NC(=O)[C@@H](NC(=O)[C@@H](NC)[C@@H](C)CC)C(C)C)C(C)C)[C@@H](C)CC)[C@@H](C)CC)[C@@H](C)CC)C(=O)N[C@@H](C)C(=O)N[C@@H](CCC(=O)O)C(=O)N[C@H](C(N)=O)C(C)C [compound 126] (H-[NMeI]VLSLDVPIGLLQILLHQARARAAREQAK([AEEA-AEEA-γGlu-γGlu-C20 diacid])[Aib]NAEI[Nle]AEV-NH2) | 
5 |  |  | 0.631 | 158000 | CC[C@H](C)[C@H](N)C(=O)N[C@H](C(=O)N[C@@H](CC(C)C)C(=O)N[C@@H](CO)C(=O)N[C@@H](CC(C)C)C(=O)N[C@@H](CC(=O)O)C(=O)N[C@H](C(=O)N1CCC[C@H]1C(=O)N[C@H](C(=O)NCC(=O)N[C@@H](CC(C)C)C(=O)N[C@@H](CC(C)C)C(=O)N[C@@H](CCC(N)=O)C(=O)N[C@H](C(=O)N[C@@H](CC(C)C)C(=O)N[C@@H](CC(C)C)C(=O)N[C@@H](CO)C(=O)N[C@@H](CCC(N)=O)C(=O)N[C@@H](C)C(=O)N[C@@H](CCCNC(=N)N)C(=O)N[C@@H](C)C(=O)N[C@@H](CCCNC(=N)N)C(=O)N[C@@H](C)C(=O)N[C@@H](C)C(=O)N[C@@H](CCCNC(=N)N)C(=O)N[C@@H](CCC(=O)O)C(=O)N[C@@H](CCC(N)=O)C(=O)N[C@@H](C)C(=O)N[C@@H](CCCCNC(=O)COCCOCCNC(=O)COCCOCCNC(=O)CC[C@H](NC(=O)CC[C@H](NC(=O)CCCCCCCCCCCCCCCCCCC(=O)O)C(=O)O)C(=O)O)C(=O)N[C@H](C(=O)N[C@@H](CC(N)=O)C(=O)N[C@@H](C)C(=O)N[C@@H](CCC(=O)O)C(=O)N[C@H](C(=O)N[C@@H](CC(C)C)C(=O)N[C@@H](C)C(=O)N[C@@H](CCC(=O)O)C(=O)N[C@H](C(N)=O)C(C)C)[C@@H](C)CC)[C@@H](C)O)[C@@H](C)CC)[C@@H](C)CC)C(C)C)C(C)C [compound 82] (H-IVLSLDVPIGLLQILLSQARARAAREQAK([AEEA-AEEA-γGlu-γGlu-C20 diacid])TNAEILAEV-NH2) | 
